Where two headings read alike, the source gives them in different places.
Tests used:
[1] = tested on: JAK2 pathway (P-STAT5 in TF-1 human erythroleukemia cells + EPO); test: P-STAT5 TF-1+Erythropoietin (EPO) assay; assay type: cell-based; conditions: TF-1 cells, 30 minutes compound, EPO 30 min, IC50 by four-parameter fit, read-out: Cellular (JAK2 PSTAT5 TF1 + EPO)
Method: TF-1 human erythroleukemia cells (ATCC®; Manassas, VA; Catalog No. CRL-2003™) were grown in Roswell Park Memorial Institute (RPMI) medium supplemented with 10% heat-inactivated fetal bovine serum (FBS), 2 ng/mL granulocyte-macrophage colony-stimulating factor, 1× non-essential amino acids (NEAA), and 1 mM sodium pyruvate. The day before the assay, the cultures were transferred to Opti-MEM™, 1×NEAA, 1 mM sodium pyruvate, and 0.5% charcoal-stripped FBS (starve medium). Inhibitor stock solutions (5 mM in DMSO) were serially diluted 1:2 in DMSO to generate a 10-point concentration titration (at 500× test concentration), which was further diluted by a 50-fold dilution in Assay Medium (RPMI containing 1×NEAA and 1 mM sodium pyruvate) to generate a 10× concentration titration (in 2% DMSO). The cells (300,000 cells/well in 35 μL of Assay Medium) were seeded in 384-well Greiner plates. Diluted inhibitor at 10× concentration (5 μL) was added to the cells and the plates were incubated for 30 minutes at 37° C. in a humidified incubator. Cells were stimulated with the human recombinant cytokine at the respective EC90 concentrations, as previously determined for each individual lot. For the phosphorylated signal transducer and activator of transcription 6 (P-STAT6) TF-1+Interleukin-13 (IL-13) assay, 10 μL of 250 ng/mL IL-13 (R&D Systems; Minneapolis, MN) was added to the cells, which were then incubated for 10 minutes at 37° C. For the P-STAT5 TF-1+Erythropoietin (EPO) assay, 10 μL of 110 IU/mL EPO (Gibco Life Technologies, Catalog No. PHC2054) was added to the cells, which were then incubated for 30 min at 37° C. For both assays, the incubation was followed by addition to the cells of 5 μL of ice-cold 10× cell lysis buffer (Cell Signaling Technologies; Danvers, MA; Catalog No. 9803S) containing 1 mM phenylmethylsulfonyl fluoride (PMSF). Assay plates were frozen at −80° C. for a minimum of 1 hour. In the IL-13 assay, P-STAT6 was measured by coating goat anti-rabbit (GAR) plates (Meso Scale Discovery [MSD]; Rockville, MD; Catalog No. MSD L21RA-1) with rabbit anti-human total STAT6 antibody (Cell Signaling Technologies; Catalog No. 9362S), incubating the cell lysates in the coated plates overnight at 4° C., and then detecting with mouse anti-P-STAT6 (Tyr641) Clone 16E12 antibody (MilliporeSigma; Burlington, MA; Catalog No. 05-590, custom labeled by MSD with SULFO-tag) using standard MSD plate processing, washing, and detection protocols. In the EPO assay, P-STAT5 was detected using the phospho-STAT5a,b Whole Cell Lysate Kit (MSD; Catalog No. K150IGD-1). The electrochemiluminescence (ECL) signal of wells was read on the MESO SECTOR S600 (MSD) reader.
Data analysis was performed by subtracting the negative control (cytokine stimulated and 20 μM control inhibitor-treated cells) mean ECL value from the ECL value of all wells, determining percent of control for test compound well ECL values relative to the positive control (cytokine stimulated and DMSO-treated cells) mean ECL value, and determining the IC50 for test compounds with a four-parameter logistic fit model as shown in Equation 4.

[2] = tested on: JAK1 (IL-13-stimulated STAT6 phosphorylation in BEAS-2B cells); test: P-STAT6 BEAS-2B+IL-13 cell assay; assay type: cell-based, human; conditions: 1 hour compound, IL-13 15 minutes, IC50 by four-parameter fit, read-out: Cellular JAK1 PSTAT6 BEAS2B + IL13
In short: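 BEAS-2B human bronchial epithelial cells preincubated 1 h at 37 °C with compound, then stimulated with human recombinant IL-13 for 15 min. Phospho-STAT6 (Tyr641) in lysates measured by MSD electrochemiluminescence immunoassay; IC50 from a four-parameter logistic fit of percent of control.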

`CNCCn1nnnc1Cn1cc(NC(=O)c2cnn3cccnc23)c(-c2cc(OC(F)F)ccc2OC(F)F)n1` [Example 19, N-[3-[2,5-bis(difluoromethoxy)phenyl]-1-[[1-[2-(methylamino)ethyl]tetrazol-5-yl]methyl]pyrazol-4-yl]pyrazolo[1,5-a]pyrimidine-3-carboxamide] gave an IC50 ([1]; Homo sapiens, TF-1, 0.5 h) of 21 nM and an IC50 ([2]; Homo sapiens, BEAS-2B, 1 h) of 21 nM.

`CN1CCC(N2CC(n3nnc(Cn4cc(NC(=O)c5cnn6cccnc56)c(-c5cc(OC(F)F)ccc5OC(F)F)n4)n3)C2)CC1` [Example 38, N-[3-[2,5-bis(difluoromethoxy)phenyl]-1-[[2-[1-(1-methyl-4-piperidyl)azetidin-3-yl]tetrazol-5-yl]methyl]pyrazol-4-yl]pyrazolo[1,5-a]pyrimidine-3-carboxamide] gave an IC50 ([1]; Homo sapiens, TF-1, 0.5 h) of 42 nM and an IC50 ([2]; Homo sapiens, BEAS-2B, 1 h) of 18 nM.

Work on `O=C(Nc1cn(Cc2nnn(C3CNC3)n2)nc1-c1cc(Cl)ccc1OC(F)F)c1cnn2cccnc12` [Example 8, N-[1-[[2-(azetidin-3-yl)tetrazol-5-yl]methyl]-3-[5-chloro-2-(difluoromethoxy)phenyl]pyrazol-4-yl]pyrazolo[1,5-a]pyrimidine-3-carboxamide] yielded an IC50 ([1]; Homo sapiens, TF-1, 0.5 h) of 13 nM and an IC50 ([2]; Homo sapiens, BEAS-2B, 1 h) of 9.3 nM.

`CNCCn1nnc(Cn2cc(NC(=O)c3cnn4cccnc34)c(-c3cc(OC(F)F)ccc3OC(F)F)n2)n1` [Example 20, N-[3-[2,5-bis(difluoromethoxy)phenyl]-1-[[2-[2-(methylamino)ethyl]tetrazol-5-yl]methyl]pyrazol-4-yl]pyrazolo[1,5-a]pyrimidine-3-carboxamide] was tested, and the IC50 ([1]; Homo sapiens, TF-1, 0.5 h) was 15 nM and the IC50 ([2]; Homo sapiens, BEAS-2B, 1 h) was 30 nM.

`CN1CCC(n2nnnc2Cn2cc(NC(=O)c3cnn4cccnc34)c(-c3cc(OC(F)F)ccc3OC(F)F)n2)C1` (stereo not shown) [Example 26, N-[3-[2,5-bis(difluoromethoxy)phenyl]-1-[[1-(1-methylpyrrolidin-3-yl)tetrazol-5-yl]methyl]pyrazol-4-yl]pyrazolo[1,5-a]pyrimidine-3-carboxamide] gave an IC50 ([1]; Homo sapiens, TF-1, 0.5 h) of 18 nM and an IC50 ([2]; Homo sapiens, BEAS-2B, 1 h) of 16 nM.

Molecule `O=C(Nc1cn(Cc2nnn(C3CCNC3)n2)nc1-c1cc(OC(F)F)ccc1OC(F)F)c1cnn2cccnc12` (single isomer, unassigned) [Example 28, N-[3-[2,5-bis(difluoromethoxy)phenyl]-1-[(2-pyrrolidin-3-yltetrazol-5-yl)methyl]pyrazol-4-yl]pyrazolo[1,5-a]pyrimidine-3-carboxamide] has an IC50 [1] of 19 nM and an IC50 [2] of 12 nM.

`CN1CCC(N2CC(n3nnc(Cn4cc(NC(=O)c5cnn6cccnc56)c(-c5cc(OC(F)F)ccc5OC(F)F)n4)n3)C2)C1` (single isomer, unassigned) [Example 72, N-[3-[2,5-bis(difluoromethoxy)phenyl]-1-[[2-[1-(1-methylpyrrolidin-3-yl)azetidin-3-yl]tetrazol-5-yl]methyl]pyrazol-4-yl]pyrazolo[1,5-a]pyrimidine-3-carboxamide] was tested, and the IC50 ([1]; Homo sapiens, TF-1, 0.5 h) was 51 nM and the IC50 ([2]; Homo sapiens, BEAS-2B, 1 h) was 36 nM.

Work on `O=C(Nc1cn(Cc2nnn(C3CCNC3)n2)nc1-c1cc(OC(F)F)ccc1OC(F)F)c1cnn2cccnc12` (single isomer, unassigned) [Example 27, N-[3-[2,5-bis(difluoromethoxy)phenyl]-1-[(2-pyrrolidin-3-yltetrazol-5-yl)methyl]pyrazol-4-yl]pyrazolo[1,5-a]pyrimidine-3-carboxamide] yielded an IC50 ([1]; Homo sapiens, TF-1, 0.5 h) of 17 nM and an IC50 ([2]; Homo sapiens, BEAS-2B, 1 h) of 12 nM.

— US12247032B2, “Substituted pyrazolo[1,5-a]pyrimidines as inhibitors of JAK kinases” (Genentech, Inc., priority 2019, dated 2025)
